Test results taken from the supplement of paper PMC10627819.

Legend:
S. aureus DSM 20231 [1] = assay: fitness (endpoint OD595 vs no drug) (fraction); higher = more growth
Outline: (§1)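 With the first reading as background, OD595 was measured every 30 min for 14 h in 384-well plates kept at 37 °C and inoculated at OD595 0.01. TSB, LB Lennox or CY was the medium. Fitness is the optical density at the transition into stationary phase divided by the robust mean of no-drug control wells, with a cap of 1.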

B. subtilis 168 [2] = assay: as above
Outline: as §1

S. aureus Newman [3] = assay: as above
Outline: as §1

S. pneumoniae D39V [4] = assay: as above
Outline: as §1

S. aureus DSM 20231 [5] = assay: Bliss interaction score (quartile over a dose matrix) (fitness difference); higher = more antagonism (negative = synergy)
Outline: (§2)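 The Bliss score is observed fitness minus expected fitness, where the expected value is the product of single-drug fitness values inferred from combination data. Fitness is OD595 at entry into stationary phase normalised to the plate's robust no-drug mean and capped at 1. Scores are reported as quartiles spanning technical, biological and donor/recipient replicates.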

B. subtilis 168 [6] = assay: as above
Outline: as §2

S. aureus Newman [7] = assay: as above
Outline: as §2

S. pneumoniae D39V [8] = assay: as above
Outline: as §2
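For Bliss interaction score (quartile over a dose matrix) in this document: first quartile when negative (synergy) and third quartile when positive (antagonism).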
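For fitness (endpoint OD595 vs no drug) in this document: OD595 on entry to stationary phase over no-drug wells; at most 1.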

C[C@@H]1O[C@@H]1P(=O)(O)O [Fosfomycin] + Cc1onc(-c2ccccc2)c1C(=O)N[C@@H]1C(=O)N2[C@@H]1SC(C)(C)[C@@H]2C(=O)O [Oxacillin]
Details	fitness
B. subtilis 168 [2], first compound 1.562 µg/mL, partner 0.002 µg/mL	0.65
B. subtilis 168 [2], first compound 1.562 µg/mL, partner 0.004 µg/mL	0.696
B. subtilis 168 [2], first compound 1.562 µg/mL, partner 0.008 µg/mL	0.568
B. subtilis 168 [2], first compound 3.124 µg/mL, partner 0.002 µg/mL	0.566
B. subtilis 168 [2], first compound 3.124 µg/mL, partner 0.004 µg/mL	0.546
B. subtilis 168 [2], first compound 3.124 µg/mL, partner 0.008 µg/mL	0.51
B. subtilis 168 [2], first compound 6.248 µg/mL, partner 0.002 µg/mL	0.358
B. subtilis 168 [2], first compound 6.248 µg/mL, partner 0.004 µg/mL	0.33
B. subtilis 168 [2], first compound 6.248 µg/mL, partner 0.008 µg/mL	0.281
S. aureus DSM 20231 [1], first compound 0.781 µg/mL, partner 0.0156 µg/mL	0.539
S. aureus DSM 20231 [1], first compound 0.781 µg/mL, partner 0.0312 µg/mL	0.504
S. aureus DSM 20231 [1], first compound 0.781 µg/mL, partner 0.0625 µg/mL	0.489
S. aureus DSM 20231 [1], first compound 1.562 µg/mL, partner 0.0156 µg/mL	0.442
S. aureus DSM 20231 [1], first compound 1.562 µg/mL, partner 0.0312 µg/mL	0.459
S. aureus DSM 20231 [1], first compound 1.562 µg/mL, partner 0.0625 µg/mL	0.362
S. aureus DSM 20231 [1], first compound 3.124 µg/mL, partner 0.0156 µg/mL	0.402
S. aureus DSM 20231 [1], first compound 3.124 µg/mL, partner 0.0312 µg/mL	0.335
S. aureus DSM 20231 [1], first compound 3.124 µg/mL, partner 0.0625 µg/mL	0.0751
S. aureus Newman [3], first compound 0.781 µg/mL, partner 0.0156 µg/mL	0.606
S. aureus Newman [3], first compound 0.781 µg/mL, partner 0.0312 µg/mL	0.563
S. aureus Newman [3], first compound 0.781 µg/mL, partner 0.0625 µg/mL	0.49
S. aureus Newman [3], first compound 1.562 µg/mL, partner 0.0156 µg/mL	0.475
S. aureus Newman [3], first compound 1.562 µg/mL, partner 0.0312 µg/mL	0.421
S. aureus Newman [3], first compound 1.562 µg/mL, partner 0.0625 µg/mL	0.279
S. aureus Newman [3], first compound 3.124 µg/mL, partner 0.0156 µg/mL	0.145
S. aureus Newman [3], first compound 3.124 µg/mL, partner 0.0312 µg/mL	0.0796
S. aureus Newman [3], first compound 3.124 µg/mL, partner 0.0625 µg/mL	0.0515
S. pneumoniae D39V [4], first compound 1.25 µg/mL, partner 0.005 µg/mL	≥ 1
S. pneumoniae D39V [4], first compound 1.25 µg/mL, partner 0.01 µg/mL	0.996
S. pneumoniae D39V [4], first compound 1.25 µg/mL, partner 0.02 µg/mL	0.916
S. pneumoniae D39V [4], first compound 1.25 µg/mL, partner 0.04 µg/mL	0.3
S. pneumoniae D39V [4], first compound 2.5 µg/mL, partner 0.005 µg/mL	0.982
S. pneumoniae D39V [4], first compound 2.5 µg/mL, partner 0.01 µg/mL	0.913
S. pneumoniae D39V [4], first compound 2.5 µg/mL, partner 0.02 µg/mL	0.843
S. pneumoniae D39V [4], first compound 2.5 µg/mL, partner 0.04 µg/mL	0.181
S. pneumoniae D39V [4], first compound 5 µg/mL, partner 0.005 µg/mL	0.85
S. pneumoniae D39V [4], first compound 5 µg/mL, partner 0.04 µg/mL	0.0702

fitness, B. subtilis 168 [2], one replicate
Details	partner 0.0078 µg/mL	partner 0.0155 µg/mL	partner 0.031 µg/mL	partner 0.075 µg/mL	partner 0.15 µg/mL	partner 0.3 µg/mL
first compound 1.562 µg/mL	0.807	0.835	0.797	0.339	0.0497	0.0455
first compound 3.124 µg/mL	0.663	0.68	0.613	0.164	0.0172	0.0362
first compound 6.248 µg/mL	0.548	0.531	0.504	0.0968	0.0104	0.0381

Details	Bliss interaction score
B. subtilis 168 [6]	-0.0577
S. aureus DSM 20231 [5]	-0.11
S. aureus Newman [7]	-0.0668
S. pneumoniae D39V [8]	-0.154

C[C@@H]1O[C@@H]1P(=O)(O)O [Fosfomycin] + CN[C@@H]1[C@H](O)[C@H](NC)[C@H]2O[C@@]3(O)C(=O)C[C@@H](C)O[C@H]3O[C@@H]2[C@H]1O [Spectinomycin]
fitness
Details	partner 2 µg/mL	partner 4 µg/mL	partner 8 µg/mL	partner 16 µg/mL
B. subtilis 168 [2], first compound 1.562 µg/mL	0.657	0.662	0.601	–
B. subtilis 168 [2], first compound 3.124 µg/mL	0.554	0.526	0.426	–
B. subtilis 168 [2], first compound 6.248 µg/mL	0.431	0.4	0.212	–
S. aureus DSM 20231 [1], first compound 0.781 µg/mL	–	0.69	0.72	0.683
S. aureus DSM 20231 [1], first compound 1.562 µg/mL	–	0.588	0.568	0.595
S. aureus DSM 20231 [1], first compound 3.124 µg/mL	–	0.511	0.495	0.416
S. aureus Newman [3], first compound 0.781 µg/mL	–	0.574	0.58	0.497
S. aureus Newman [3], first compound 1.562 µg/mL	–	0.452	0.412	0.234
S. aureus Newman [3], first compound 3.124 µg/mL	–	0.0691	0.0277	0.0028
S. pneumoniae D39V [4], first compound 1.25 µg/mL	–	0.943	0.885	0.806
S. pneumoniae D39V [4], first compound 2.5 µg/mL	–	0.899	0.868	0.817
S. pneumoniae D39V [4], first compound 5 µg/mL	–	0.704	0.734	0.652

fitness, one replicate
Details	first compound 0.781 µg/mL	first compound 1.562 µg/mL	first compound 3.124 µg/mL
S. aureus DSM 20231 [1], partner 32 µg/mL	0.692	0.564	0.268
S. aureus DSM 20231 [1], partner 64 µg/mL	0.0413	0.0145	0.0077
S. aureus Newman [3], partner 32 µg/mL	0.056	0.0135	0
S. aureus Newman [3], partner 64 µg/mL	0.0367	0.0527	0.0276

Details	Bliss interaction score
B. subtilis 168 [6]	-0.107
S. aureus DSM 20231 [5]	-0.0508
S. aureus Newman [7]	-0.171
S. pneumoniae D39V [8]	0.0537

COc1cccc2c1C(=O)c1c(O)c3c(c(O)c1C2=O)C[C@@](O)(C(=O)CO)C[C@@H]3O[C@H]1C[C@H](N)[C@H](O)[C@H](C)O1 [Doxorubicin] + Cc1ncc([N+](=O)[O-])n1CCO [Metronidazole]
fitness
Details	first compound 0.25 µg/mL	first compound 0.5 µg/mL	first compound 0.625 µg/mL	first compound 1 µg/mL	first compound 1.25 µg/mL	first compound 2.5 µg/mL
B. subtilis 168 [2], partner 0.625 µg/mL	–	–	≥ 1	–	0.964	0.74
B. subtilis 168 [2], partner 1.25 µg/mL	–	–	0.941	–	0.929	0.699
B. subtilis 168 [2], partner 2.5 µg/mL	–	–	0.937	–	0.956	0.653
S. aureus DSM 20231 [1], partner 0.625 µg/mL	–	–	0.899	–	0.874	0.791
S. aureus DSM 20231 [1], partner 1.25 µg/mL	–	–	0.972	–	0.974	0.84
S. aureus DSM 20231 [1], partner 2.5 µg/mL	–	–	0.994	–	0.965	0.897
S. aureus Newman [3], partner 0.625 µg/mL	–	–	0.843	–	0.774	0.753
S. aureus Newman [3], partner 0.781 µg/mL	–	–	0.761	–	0.765	0.75
S. aureus Newman [3], partner 1.25 µg/mL	–	–	0.881	–	0.807	0.795
S. aureus Newman [3], partner 1.562 µg/mL	–	–	0.76	–	0.793	0.751
S. aureus Newman [3], partner 2.5 µg/mL	–	–	0.853	–	0.793	0.732
S. aureus Newman [3], partner 3.124 µg/mL	–	–	0.76	–	0.806	0.76
S. pneumoniae D39V [4], partner 1.073 µg/mL	0.827	0.954	–	0.895	–	–
S. pneumoniae D39V [4], partner 1.25 µg/mL	0.993	≥ 1	–	0.969	–	–
S. pneumoniae D39V [4], partner 2.145 µg/mL	0.79	0.895	–	0.907	–	–
S. pneumoniae D39V [4], partner 2.5 µg/mL	≥ 1	≥ 1	–	0.981	–	–
S. pneumoniae D39V [4], partner 4.29 µg/mL	0.809	0.869	–	0.843	–	–
S. pneumoniae D39V [4], partner 5 µg/mL	0.993	0.996	–	0.944	–	–

Details	Bliss interaction score
B. subtilis 168 [6]	0.0987
S. aureus DSM 20231 [5]	0.0515
S. aureus Newman [7]	-0.0468
S. pneumoniae D39V [8]	0.0624
